Results taken from patent US20170253581A1, “SUBSTITUTED HETEROCYCLES AS c-MYC TARGETING AGENTS” (Northwestern University, priority 2016, published 2017).
pIC50: −log10 of the molar value.

Experiments:
[1] = biological target: Myc/Max binding to DNA (Homo sapiens, UniProt P01106); assay: Electrophoretic mobility shift assay (EMSA) of Myc/Max binding to DNA; assay type: biochemical; settings: for remaining activity at 100 µM / remaining activity at 200 µM / remaining activity at 50 µM: EMSA; for remaining activity at 100 µM: 100 uM test compound, read-out: Bound DNA (%) (100uM); for remaining activity at 200 µM: 200 uM test compound, read-out: Bound DNA (%) (200uM); for remaining activity at 50 µM: 50 uM test compound, read-out: Bound DNA (%) (50uM)
Sequence of Myc/Max binding to DNA (P01106 whole entry): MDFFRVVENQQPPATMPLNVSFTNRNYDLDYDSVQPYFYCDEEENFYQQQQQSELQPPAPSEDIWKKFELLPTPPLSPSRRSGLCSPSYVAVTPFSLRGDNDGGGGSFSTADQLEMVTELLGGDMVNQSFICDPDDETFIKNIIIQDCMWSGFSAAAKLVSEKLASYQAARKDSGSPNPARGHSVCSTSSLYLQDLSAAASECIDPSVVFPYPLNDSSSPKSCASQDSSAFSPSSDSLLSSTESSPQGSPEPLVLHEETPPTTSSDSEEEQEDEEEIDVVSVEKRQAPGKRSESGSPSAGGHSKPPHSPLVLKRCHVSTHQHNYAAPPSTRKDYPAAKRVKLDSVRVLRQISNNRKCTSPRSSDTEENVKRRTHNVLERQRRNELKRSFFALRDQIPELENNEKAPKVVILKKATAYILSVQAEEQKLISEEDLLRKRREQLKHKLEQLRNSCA
Procedure, shortened: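 Electrophoretic mobility shift assay of Myc/Max binding to DNA. Compounds tested at 200 μM, 100 μM and 50 μM.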

[2] = test system: DNA damage (rH2AX staining); assay: rH2AX staining assay for DNA damage; assay type: cell-based
Method: Min9 (NUCC-0176234) was also tested for its ability to cause DNA damage in an rH2AX staining assay. We would not expect cMyc-targeting agents to produce significant DNA damage. Compounds that act directly against DNA such as doxorubicin do however. […] (See FIG. 6).

[3] = test system: cMyc wild-type (WT) and a cMyc KO line; assay: Cell viability assay against cMyc WT and cMyc KO line; assay type: cell-based; settings: FIG. 4
Method: Min9 (NUCC-0176234) was also tested in a cell viability assay against a cMyc wild-type (WT) and a cMyc KO line.

[4] = Pharmacokinetics in mice after intravenous dosing; assay type: in vivo; settings: 5 mg/kg intravenously
Method: The pharmacokinetics of NUCC-176242 and NUCC-176248 were studied in mice by administering a dose of 5 mg/kg intravenously and measuring the plasma concentration versus time.

[5] = In vitro metabolism with mouse liver microsomes and mouse S9 fraction; assay type: in vitro ADME; settings: compared with NUCC-176248
Method: In vitro metabolism of NUCC-176242 and NUCC-176248 were tested using mouse liver microsomes and a mouse S9 fraction.

[6] = test system: wild type and Myc knockout rat fibroblasts; assay: Growth inhibition on wild type and Myc knockout rat fibroblasts; assay type: cell-based; settings: FIG. 3; for selectivity of growth inhibition for Myc WT over Myc KO cells: wild type vs Myc knockout rat fibroblasts
Text: We tested the top 13 active compounds in the first screen assay. […] More than half of the tested compounds show better growth inhibitory effect on Myc WT compared to Myc KO cells.

**Q.** With `CCc1ccc(Oc2c[nH]nc2-c2ccc(OCc3cnn(-c4ccccc4)c3)cc2O)cc1` [NUCC-0176234] as the compound, how does the pIC50 [1] read?
**A.** 3.91

**Q.** And the remaining activity at 100 µM [1]?
**A.** 79%

**Q.** And the remaining activity at 200 µM [1]?
**A.** 10%

**Q.** And the DNA damage [2]?
**A.** essentially no DNA damage

**Q.** And the “reduction of cell viability, WT vs KO line” value [3]?
**A.** reduces cell viability much more in the WT line than the KO cells

**Q.** With `CCc1ccc(Oc2c(-c3ccc(OCc4ccc(Cl)cc4)cc3O)n[nH]c2C(F)(F)F)cc1` [NUCC-0176242] as the compound, how does the pIC50 [1] read?
**A.** 4.05

**Q.** And the remaining activity at 100 µM [1]?
**A.** 36%

**Q.** And the remaining activity at 200 µM [1]?
**A.** 2%

**Q.** And the “in vivo metabolism (plasma concentration versus time)” value [4]?
**A.** correlated well with the observed in vitro metabolism

**Q.** What about the “metabolism by mouse S9 fraction” value [5] of the same compound?
**A.** significantly metabolism by the mouse S9 fraction versus NUCC-176248

**Q.** Which results are given for `CCc1ccc(Oc2c(-c3ccc(OCc4ccc(Cl)cc4)cc3O)nn(C)c2C(F)(F)F)cc1` [NUCC-0176248]?
**A.** pIC50 [1]: 4.02; remaining activity at 100 µM [1]: 49%; remaining activity at 200 µM [1]: 6%; effective concentration (dose with the greatest selectivity, growth inhibition Myc WT vs KO) [6]: 6 µM; selectivity of growth inhibition for Myc WT over Myc KO cells [6]: high specificity; in vivo metabolism (plasma concentration versus time) [4]: correlated well with the observed in vitro metabolism

**Q.** Which remaining activity at 200 µM [1] does the source give for `CCc1ccc(Oc2c(-c3ccc(OCc4ccncc4)cc3O)n[nH]c2C(F)(F)F)cc1` [NUCC-0176250] here?
**A.** 57%

**Q.** And the “effective concentration (dose with the greatest selectivity, growth inhibition Myc WT vs KO)” value [6]?
**A.** 50 µM

**Q.** And the “selectivity of growth inhibition for Myc WT over Myc KO cells” value [6]?
**A.** great selectivity

**Q.** For `Cn1nc(-c2ccc(OCc3ccc(Cl)cc3)cc2O)c(-c2ccc(Cl)c(C(F)(F)F)c2)c1C(F)(F)F` [compound 0200733], which remaining activity at 100 µM [1] is on record?
**A.** 97%

**Q.** For `Oc1cc(OCc2ccc(Cl)cc2)ccc1-c1n[nH]c(C(F)(F)F)c1-c1ccc(F)c(C(F)(F)F)c1` [compound 0200734], which remaining activity at 100 µM [1] is on record?
**A.** 91%

**Q.** What does the source list for `Cn1nc(C(F)(F)F)c(-c2ccc(F)c(C(F)(F)F)c2)c1-c1ccc(OCc2ccc(Cl)cc2)cc1O` [compound 0200735]?
**A.** remaining activity at 50 µM [1]: 84%; remaining activity at 100 µM [1]: 60%

**Q.** With `Cn1nc(-c2ccc(OCc3ccc(Cl)cc3)cc2O)c(-c2ccc(F)c(C(F)(F)F)c2)c1C(F)(F)F` [compound 0200736] as the compound, how does the remaining activity at 100 µM [1] read?
**A.** 86%

**Q.** Which remaining activity at 100 µM [1] does the source give for `Oc1cc(OCc2ccc(Cl)cc2)ccc1-c1n[nH]c(C(F)(F)F)c1-c1ccc(C(F)(F)F)cc1Cl` [compound 0200737] here?
**A.** 76%

**Q.** Which results are given for `Cn1nc(C(F)(F)F)c(-c2ccc(C(F)(F)F)cc2Cl)c1-c1ccc(OCc2ccc(Cl)cc2)cc1O` [compound 0200738]?
**A.** remaining activity at 50 µM [1]: 91%; remaining activity at 100 µM [1]: 18%

**Q.** With `CCc1c(C(F)(F)F)n[nH]c1-c1ccc(OCc2ccc(Cl)cc2)cc1O` [compound 0200739] as the compound, how does the remaining activity at 100 µM [1] read?
**A.** 78%

**Q.** With `CCCc1c(C(F)(F)F)n[nH]c1-c1ccc(OCc2ccc(Cl)cc2)cc1O` [compound 0200740] as the compound, how does the remaining activity at 50 µM [1] read?
**A.** 93%

**Q.** And the remaining activity at 100 µM [1]?
**A.** 75%

**Q.** With `Cn1cc(C(F)(F)F)c(-c2ccc(OCc3ccc(Cl)cc3)cn2)n1` [compound 0200741] as the compound, how does the remaining activity at 100 µM [1] read?
**A.** 103%

**Q.** For `Cn1cc(C(F)(F)F)c(-c2ccc(NCc3ccc(Cl)cc3)cn2)n1` [compound 0200742], which remaining activity at 100 µM [1] is on record?
**A.** 99%

**Q.** With `Cn1cc(C(F)(F)F)c(-c2ccc(OCc3ccc(Cl)cc3)cc2F)n1` [compound 0200743] as the compound, how does the remaining activity at 100 µM [1] read?
**A.** 101%

**Q.** With `Cn1nc(C(F)(F)F)cc1-c1ccc(OCc2ccc(Cl)cc2)cc1Cl` [compound 0200744] as the compound, how does the remaining activity at 100 µM [1] read?
**A.** 62%

**Q.** Which remaining activity at 100 µM [1] does the source give for `Cn1nc(C(F)(F)F)cc1-c1ccc(OCc2ccc(Cl)cc2)cc1N` [compound 0200745] here?
**A.** 105%

**Q.** With `Cn1cc(-c2ccc(OCc3ccc(Cl)cc3)cc2N)c(C(F)(F)F)n1` [compound 0200746] as the compound, how does the remaining activity at 100 µM [1] read?
**A.** 101%

**Q.** Which remaining activity at 100 µM [1] does the source give for `Cn1cc(C(F)(F)F)c(-c2cnc(OCc3ccc(Cl)cc3)cn2)n1` [compound 0200747] here?
**A.** 105%
